Measurements taken from patent publication US20240400572A1, “COMPOUNDS AND METHODS FOR TREATING CANCERS THAT ARE MGMT DEFICIENT REGARDLESS OF MMR STATUS” (Yale University, priority 2021, published 2024).

What was measured:
[1] = test system: genomic DNA of LN229 MGMT−/MMR+ cells; assay: Genomic DNA denaturing gel electrophoresis; type: cell-based, human; settings: 200 μM, 24 h
Description: Genomic DNA Denaturing Gel Electrophoresis. Cells were trypsinized, washed with 1×PBS, and stored at −80° C. prior to processing. Genomic DNA was extracted with the DNeasy Blood & Tissue Kit (Qiagen) per kit protocol. A 0.7% agarose gel was prepared in 100 mM NaCl-2 mM EDTA (pH 8) and soaked in 40 mM NaOH-1 mM EDTA running buffer for 2 h. Genomic DNA (400 ng/well) was then loaded in 1× BlueJuice loading buffer (Invitrogen) and subjected to electrophoresis at 2 V/cm for 30 min, followed by 3 V/cm for 2 h. The gel was neutralized in 150 mM NaCl-100 mM Tris (pH 7.4) for 30 min, twice, and then stained with 1× SYBR Gold in 150 mM NaCl-100 mM Tris (pH 7.4) for 90 min. Imaging was performed on a ChemiDoc XRS+ Molecular Imager (Bio-Rad).

[2] = test system: γH2AX, 53BP1 and pRPA foci in LN229 MGMT+/−, MMR+/− cells; assay: Immunofluorescence foci assays; type: cell-based, human; settings: 20 μM; for γH2AX, 53BP1 and pRPA foci formation (in words): 2 to 48 h; for DDR foci across cell cycle phases (in words): 48 h, G1, S and G2 phases
Description: Immunofluorescence Foci Assays. High-throughput immunofluorescence foci assays were performed at the Yale Center for Molecular Discovery (YCMD). Cells were seeded at 2000 cells/well in black polystyrene flat bottom 384-well plates (Greiner Bio-One) and allowed to adhere overnight. Compound addition was performed utilizing a Labcyte Echo 550 liquid handler (Beckman Coulter), with 6 replicates per test condition and 12 replicates per control condition. Following drug incubation, cells were fixed and stained for phospho-SER139-H2AX (γH2AX), 53BP1, or phospho-SER33-RPA2 (pRPA) as follows.
γH2AX protocol: Cells were fixed with 4% paraformaldehyde in 1×PBS for 15 min, washed twice with 1×PBS, incubated in extraction buffer (0.5% Triton X-100 in 1×PBS) for 10 min, washed twice with 1×PBS, and incubated in blocking buffer (Blocker Casein in PBS, Thermo Scientific+5% goat serum, Life Technologies) for 1 h. Mouse anti-phospho-histone H2A.X (Ser139) antibody (clone JBW301, Millipore, 05-636) was added 1/1000 in blocking buffer at 4° C. overnight. After washing with 1×PBS, cells were incubated with goat anti-mouse IgG (H+L) highly cross-adsorbed secondary antibody, Alexa Fluor 647 (Invitrogen, A-21236) 1/500 and with 1 μg/mL Hoechst nucleic acid dye in blocking buffer for 2 h, and then washed with 1×PBS.
53BP1 protocol: Cells were fixed with 4% paraformaldehyde+0.02% Triton X-100 in 1×PBS for 20 minutes, washed twice with 1×PBS, and incubated in blocking buffer (10% FBS, 0.5% Triton X-100 in 1×PBS) for 1 h. Rabbit anti-53BP1 antibody (Novus Biologicals, NB100-904) was added 1/1000 in blocking buffer at 4° C. overnight. After washing with 1×PBS, cells were incubated with goat anti-rabbit IgG (H+L) highly cross-adsorbed secondary antibody, Alexa Fluor 647 (Invitrogen, A-21245) 1/500 and with 1 μg/mL Hoechst nucleic acid dye in blocking buffer for 2 h, and then washed with 1×PBS.
pRPA protocol: Cells were washed twice with 1×PBS on ice, incubated in extraction buffer (0.5% Triton X-100 in 1×PBS) for 5 min on ice, fixed with 3% paraformaldehyde+2% sucrose in 1×PBS for 15 min at 23° C., incubated again in extraction buffer for 5 min on ice, and incubated in blocking buffer (2% BSA, 10% milk, 0.1% Triton X-100 in 1×PBS) for 1 h at 23° C. Rabbit anti-phospho-RPA2 (S33) antibody (Bethyl Laboratories, A300-246A) was added 1/1000 in blocking buffer at 4° C. overnight. […]
Additional small scale immunofluorescence assays used for extended time course analysis of γH2AX foci were performed in Millicell EZSLIDE 8-well chamber slides (Millipore). […] Imaging was performed on a Keyence BZ-X800 fluorescence microscope at 40× magnification. […]

| Structure (SMILES) | crosslinked genomic DNA (in words) [1] | γH2AX, 53BP1 and pRPA foci formation (in words) [2] | DDR foci across cell cycle phases (in words) [2] |
| --- | --- | --- | --- |
| NC(=O)c1ncn2c(=O)n(CCF)nnc12 [KL-50, 3-(2-fluoroethyl)-4-oxo-3H,4H-imidazo[4,3-d][1,2,3,5]tetrazine-8-carboxamide] | presence of crosslinked DNA | maximal foci response at 48 h, specifically in MGMT− cells and irrespective of MMR status | foci formation primarily in the S- and G2-phases of the cell cycle |
| Cn1nnc2c(C(N)=O)ncn2c1=O [TMZ, temozolomide, reference compound] | no evidence of ICL induction | comparable response in MGMT− cells, but this was abolished in the absence of functional MMR | did not observe foci induction or micronuclei formation in MGMT−/MMR− cells |
